Measurements as given in patent US20140235578A1, “METHODS FOR TREATING NEOPLASIA AND FOR IDENTIFYING COMPOSITIONS USEFUL IN SUCH THERAPY” (priority 2007, published 2014).
Where a SMILES comes first, the peptide text is derived from it. The star is where a group is joined. Cbz = O=C(OCc1ccccc1)*

How the values were obtained:
MEFs = assay: Neutral comet assay of VP-16-induced DSBs; format: cell-based, mouse; details: co-treatment, data not shown
Description: Both wild type and Top2β knockout mouse embryonic fibroblasts (MEFs) were treated with either DMSO (solvent control) or VP-16 (250 μM) for 90 min, followed by incubated in drug-free media for 30 min. Neutral comet assay was then performed. Tail moment (average from 100 cells) was determined for each treatment.

H9C2 cardiomyocytes = format: cell-based
Description: Vitamin C and NAC were added 30 min prior to doxorubicin. Cell lysates were then analyzed by Western blotting using anti-γ-H2AX or anti-α-tubulin antibody. […] Cell lysates were then analyzed by Western blotting (upper panel) using anti-γ-H2AX or anti-α-tubulin antibody. Quantification of γ-H2AX signals is shown in the lower panel. C, H9C2 cells were treated with 0.1% DMSO (labeled DMSO), bortezomib (1 μM) or MG132 (4 μM) for 30 min, followed by co-treatment with either 0.1% DMSO (labeled control) or 0.5 μM doxorubicin (labeled Doxo) for 1.5 hrs. Neutral comet assay was then performed as described in Materials and Methods. The average comet tail moments were plotted as histograms (mean±SEM). *p-value<0.001, t-test.
The amount of Top2 cleavage complexes was measured by a band depletion assay as described in Materials and Methods. Cells were lysed either immediately or after reversal of the Top2 cleavage complexes (labeled R+250). Cell lysates were analyzed by Western blotting using anti-Top2α/Top2β or anti-α-tubulin antibody. […] Cells were then lysed and protein levels of Top2α, and Top2β isozymes were determined by Western blotting. […] Cell lysates were immunoblotted using anti-Top2β antibody. D, H9C2 cells were treated with ICRF187 (100 μM) for 4 hrs, followed by treatment with doxorubicin (Doxo, 0, 0.5 and 1 μM) for 1.5 hrs. […]

SV40-transformed MEFs = assay: Plasmid integration assay; format: cell-based, mouse; details: 2 μM, added 30 min prior to and during transfection
Description: Transformed top2β^+/Δ2 and top2β^Δ2/Δ2 MEFs were plated in six-well plates (4×10^5 cellsper well) one day prior to transfection. Transfection was performed with EcoRI-linearized pUCSV-BSD plasmid (containing the blasticidin resistance gene) using the Cellfectin (Invitrogen) transfection reagent (0.1 μg DNA+2 μl Cellfectin). VP-16 was added at the time of transfection. After 6 hr, cells were washed and trypsinized. A small aliquot was removed, reseeded into fresh medium and grown without the selection agent for survival determination. The rest of the cells were reseeded into fresh medium in a 10 cm plate. After 24 hr, the selection agent blasticidin (3 μg/ml) was added. Colonies were stained with methylene blue and counted after 10 days. Where indicated, the proteasome inhibitor MG132 (2 μM) was added 30 min prior to and during transfection. Integration frequency was determined as the ratio of the number of blasticidin-resistant colonies and the number of surviving cells.

Top2β = Top2β protein level by Western blotting in H9C2 cells; format: cell-based; details: 100 μM, 0-6 hrs
Description: (§1) The amount of Top2 cleavage complexes was measured by a band depletion assay as described in Materials and Methods. Cells were lysed either immediately or after reversal of the Top2 cleavage complexes (labeled R+250). Cell lysates were analyzed by Western blotting using anti-Top2α/Top2β or anti-α-tubulin antibody. […] Cells were then lysed and protein levels of Top2α, and Top2β isozymes were determined by Western blotting. […] Cell lysates were immunoblotted using anti-Top2β antibody. D, H9C2 cells were treated with ICRF187 (100 μM) for 4 hrs, followed by treatment with doxorubicin (Doxo, 0, 0.5 and 1 μM) for 1.5 hrs. Neutral comet assay was then performed as described in Materials and Methods. The average comet tail moments were plotted as histograms (mean±SEM). * p-value<0.001, t-test.

Top2α = molecular target: T1, Top2α (Rattus norvegicus, UniProt P41516); assay: Top2α protein level by Western blotting in H9C2 cells; format: cell-based; details: 100 μM, 0-6 hrs
T1 construct: endogenous in cells; host or cells: H9C2 cardiomyocytes
T1 sequence (P41516 whole entry): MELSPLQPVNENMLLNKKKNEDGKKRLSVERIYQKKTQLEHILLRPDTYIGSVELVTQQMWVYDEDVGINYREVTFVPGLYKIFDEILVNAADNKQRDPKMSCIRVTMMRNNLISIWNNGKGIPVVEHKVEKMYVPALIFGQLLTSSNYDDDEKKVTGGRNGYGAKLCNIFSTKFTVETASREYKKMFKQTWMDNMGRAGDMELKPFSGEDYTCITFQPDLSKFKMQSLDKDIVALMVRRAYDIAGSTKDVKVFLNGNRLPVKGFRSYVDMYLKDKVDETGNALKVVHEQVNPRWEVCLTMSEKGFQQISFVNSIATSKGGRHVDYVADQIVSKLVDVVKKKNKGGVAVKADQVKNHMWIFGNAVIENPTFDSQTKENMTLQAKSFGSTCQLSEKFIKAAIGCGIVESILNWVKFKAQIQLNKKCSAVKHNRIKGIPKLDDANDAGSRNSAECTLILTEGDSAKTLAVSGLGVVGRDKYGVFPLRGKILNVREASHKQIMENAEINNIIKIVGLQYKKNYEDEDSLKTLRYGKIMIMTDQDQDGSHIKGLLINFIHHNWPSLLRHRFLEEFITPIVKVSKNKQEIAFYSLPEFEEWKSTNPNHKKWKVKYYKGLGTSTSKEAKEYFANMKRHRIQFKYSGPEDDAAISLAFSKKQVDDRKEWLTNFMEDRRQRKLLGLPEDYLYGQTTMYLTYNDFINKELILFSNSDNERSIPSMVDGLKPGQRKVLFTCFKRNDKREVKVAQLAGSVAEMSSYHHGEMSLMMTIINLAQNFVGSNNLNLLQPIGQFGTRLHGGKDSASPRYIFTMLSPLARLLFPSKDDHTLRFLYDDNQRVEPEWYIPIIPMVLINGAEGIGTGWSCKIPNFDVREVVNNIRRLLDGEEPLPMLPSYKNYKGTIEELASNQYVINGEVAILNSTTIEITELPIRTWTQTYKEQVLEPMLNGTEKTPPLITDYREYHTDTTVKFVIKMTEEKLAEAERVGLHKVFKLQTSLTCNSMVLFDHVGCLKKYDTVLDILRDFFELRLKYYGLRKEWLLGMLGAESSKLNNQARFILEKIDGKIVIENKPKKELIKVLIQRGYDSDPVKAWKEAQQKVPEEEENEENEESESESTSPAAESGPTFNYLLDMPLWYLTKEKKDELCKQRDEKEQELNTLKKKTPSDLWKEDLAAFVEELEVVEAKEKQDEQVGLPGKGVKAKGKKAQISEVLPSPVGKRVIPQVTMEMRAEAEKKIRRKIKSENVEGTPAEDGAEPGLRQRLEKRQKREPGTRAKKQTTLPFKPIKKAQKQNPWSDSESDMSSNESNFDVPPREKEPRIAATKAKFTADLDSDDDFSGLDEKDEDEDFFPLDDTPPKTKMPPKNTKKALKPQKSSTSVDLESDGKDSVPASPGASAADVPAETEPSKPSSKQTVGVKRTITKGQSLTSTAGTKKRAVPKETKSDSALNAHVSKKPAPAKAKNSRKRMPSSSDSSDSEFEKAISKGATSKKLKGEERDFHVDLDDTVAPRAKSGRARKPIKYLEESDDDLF
Description: as §1

| SMILES | effect on VP-16-induced DSBs (MEFs) | effect on doxorubicin-induced comet tail moment (H9C2 cardiomyocytes) | effect on VP-16-stimulated plasmid integration (SV40-transformed MEFs) | protein level of Top2β (Top2β) | level of the Top2α isozyme (Top2α) |
| --- | --- | --- | --- | --- | --- |
| CC(C)C[C@@H](C=O)NC(=O)[C@H](CC(C)C)NC(=O)[C@H](CC(C)C)NC(=O)OCc1ccccc1 [MG132, N-[(Phenylmethoxy)carbonyl]-L-leucyl-N-[(1S)-1-formyl-3-methylbutyl]-L-leucinamide] (Cbz-Leu-Leu-Leu-aldehyde) | abolish | significantly reduced | blocks | – | – |
| C[C@@H](CN1CC(=O)NC(=O)C1)N1CC(=O)NC(=O)C1 [dexrazoxane] | – | – | – | time-dependent disappearance | no significant effect |
